In the NIST ThermoML archive (doi:10.1016/j.jct.2015.07.024):
± gives the expanded uncertainty stated by the source.

Conditions: Liquid, Closed cell (Static) method

SMILES | vapor or sublimation pressure (373 K) | vapor or sublimation pressure (412.5 K) | vapor or sublimation pressure (452.2 K) | vapor or sublimation pressure (412.8 K) | vapor or sublimation pressure (452.3 K) | vapor or sublimation pressure (373.2 K) | vapor or sublimation pressure (413.2 K) | vapor or sublimation pressure (453.2 K)
CCOC(=O)OCC [diethyl carbonate] | 45.1 ± 2.1 kPa | 143 ± 5.9 kPa | 361 ± 15 kPa |  |  |  |  | 
CCOC(C)=O [ethyl acetate] | 205.7 ± 9 kPa |  |  | 557.1 ± 23 kPa | 1222.7 ± 49 kPa |  |  | 
CC(=O)Oc1ccccc1 [phenyl ethanoate] |  |  |  |  |  | 3.5 ± 0.2 kPa | 18.2 ± 0.8 kPa | 66.1 ± 2.7 kPa
